Experimental findings from ChEMBL document CHEMBL4665678, “Overview of AKR1C3: Inhibitor Achievements and Disease Insights” (J Med Chem, 2020) are described below.

For orientation: inhibition means the share of the control response that was lost under treatment. Low values mean a response near the control, high ones a response far below the control. The term pIC50 denotes the negative decadic logarithm of the IC50, by convention in mol/L. What is called pKi is the negative decadic logarithm of the Ki, by convention in mol/L.

Substitutions are numbered along the chain they refer to. pIC50, pKi: −log10 of the molar value.

The target of one data set is T1, AKR1C2 (Homo sapiens, UniProt P52895).
T1 sequence (P52895 whole entry): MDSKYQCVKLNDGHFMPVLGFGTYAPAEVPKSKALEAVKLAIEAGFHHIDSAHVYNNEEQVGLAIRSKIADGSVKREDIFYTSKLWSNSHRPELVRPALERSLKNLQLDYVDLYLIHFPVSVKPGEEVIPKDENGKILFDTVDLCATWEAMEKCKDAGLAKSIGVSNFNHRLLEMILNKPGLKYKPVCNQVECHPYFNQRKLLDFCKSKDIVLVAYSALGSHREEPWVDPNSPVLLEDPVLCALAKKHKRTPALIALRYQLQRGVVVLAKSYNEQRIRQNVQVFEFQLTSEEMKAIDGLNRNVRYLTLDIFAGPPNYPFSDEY
Put plainly: Inhibition of AKR1C2 (unknown origin) using 9,10-phenanthrenequinone as substrate at 60 uM relative to control. The note with it: probe 9,10-phenanthrenequinone.

The next data set deals with T2, AKR1C1 (Homo sapiens, UniProt Q04828).
T2 sequence (Q04828 whole entry): T1 sequence (P52895 whole entry) with V38T, H47R, V54L, S87C, M151V, H170R, L172Q
Put plainly: Inhibition of AKR1C1 (unknown origin) using 9,10-phenanthrenequinone as substrate at 60 uM relative to control. The note with it: probe 9,10-phenanthrenequinone.

For data set [1], the target named is T3, Prostaglandin G/H synthase 2 (Homo sapiens, UniProt P35354).
T3 sequence (P35354 whole entry): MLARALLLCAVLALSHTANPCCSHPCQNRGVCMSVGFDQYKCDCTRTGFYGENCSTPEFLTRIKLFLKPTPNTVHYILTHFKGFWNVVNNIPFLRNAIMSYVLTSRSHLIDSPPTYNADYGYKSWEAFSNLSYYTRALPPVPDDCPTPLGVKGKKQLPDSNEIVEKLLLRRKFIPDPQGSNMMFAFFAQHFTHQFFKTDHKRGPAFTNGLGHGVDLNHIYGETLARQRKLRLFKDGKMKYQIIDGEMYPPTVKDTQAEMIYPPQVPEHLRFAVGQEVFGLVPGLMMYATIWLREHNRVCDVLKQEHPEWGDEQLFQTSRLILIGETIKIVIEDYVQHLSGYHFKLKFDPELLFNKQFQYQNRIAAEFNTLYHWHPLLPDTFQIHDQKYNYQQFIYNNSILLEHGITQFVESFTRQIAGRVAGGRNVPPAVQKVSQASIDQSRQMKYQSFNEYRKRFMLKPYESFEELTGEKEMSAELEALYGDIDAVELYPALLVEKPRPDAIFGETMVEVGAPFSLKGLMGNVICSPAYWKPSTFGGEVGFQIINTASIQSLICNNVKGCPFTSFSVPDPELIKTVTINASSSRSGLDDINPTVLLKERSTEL
Put plainly: Inhibition of human COX-2 expressed in Sf9 insect cells using [14C] arachidonic acid as substrate preincubated for 20 mins followed by substrate addition measured after 30 sec by thin layer chromatography assay.

Data set [2] deals with T4, Prostaglandin G/H synthase 1 (Ovis aries, UniProt P05979).
T4 sequence (P05979 whole entry): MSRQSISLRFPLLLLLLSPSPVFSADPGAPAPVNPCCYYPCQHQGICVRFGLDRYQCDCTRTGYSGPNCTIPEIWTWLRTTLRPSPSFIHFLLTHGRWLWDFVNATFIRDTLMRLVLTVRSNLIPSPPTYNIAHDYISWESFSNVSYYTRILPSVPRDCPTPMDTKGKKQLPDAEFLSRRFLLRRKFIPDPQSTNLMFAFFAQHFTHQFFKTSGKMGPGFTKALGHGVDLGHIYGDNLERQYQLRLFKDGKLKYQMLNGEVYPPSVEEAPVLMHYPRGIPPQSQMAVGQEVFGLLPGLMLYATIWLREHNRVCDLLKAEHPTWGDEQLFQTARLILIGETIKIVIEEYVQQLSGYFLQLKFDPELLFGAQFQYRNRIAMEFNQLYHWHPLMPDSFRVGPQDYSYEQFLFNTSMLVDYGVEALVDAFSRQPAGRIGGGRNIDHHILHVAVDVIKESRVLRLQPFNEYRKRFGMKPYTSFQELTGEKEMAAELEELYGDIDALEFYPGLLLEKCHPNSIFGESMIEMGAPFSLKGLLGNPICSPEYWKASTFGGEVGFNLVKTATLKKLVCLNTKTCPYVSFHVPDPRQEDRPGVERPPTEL
The data set is described as follows: Inhibition of ovine COX-1 using [14C] arachidonic acid as substrate preincubated for 20 mins followed by substrate addition measured after 30 sec by thin layer chromatography assay.

Data set [3] concerns the target T5, Aldo-keto reductase family 1 member C3 (Homo sapiens, UniProt P42330).
T5 sequence (P42330 whole entry): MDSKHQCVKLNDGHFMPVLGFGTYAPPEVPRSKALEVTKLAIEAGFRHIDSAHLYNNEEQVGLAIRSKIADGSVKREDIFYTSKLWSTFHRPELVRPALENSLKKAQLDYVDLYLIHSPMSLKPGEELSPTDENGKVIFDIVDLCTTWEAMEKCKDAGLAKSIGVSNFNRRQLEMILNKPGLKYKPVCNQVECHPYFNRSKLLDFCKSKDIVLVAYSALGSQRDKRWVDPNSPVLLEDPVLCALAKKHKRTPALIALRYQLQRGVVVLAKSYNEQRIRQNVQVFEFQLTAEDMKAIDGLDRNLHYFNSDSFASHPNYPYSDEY
The data set is described as follows: Inhibition of AKR1C3 (unknown origin) using 4-androstene-3,17-dione as substrate.

In data set [4] the target is T5, Aldo-keto reductase family 1 member C3. The data set is described as follows: Inhibition of AKR1C3 (unknown origin) using 9,10-phenanthrenequinone as substrate.
For data set [5] the target is unchanged. Put plainly: Inhibition of N-terminal His-tagged human AKR1C3 (1 to 323 residues) expressed in Escherichia coli using 4-adione as substrate in presence of NADPH by fluorescence method.
For data set [6] the target is unchanged. Put plainly: Inhibition of AKR1C3 (unknown origin) expressed in human HCT116 cells incubated for 2 to 4 hrs by UHPLC analysis. The data set is classed as cell-based, HCT-116.
Data set [7] has the same target. The data set is described as follows: Inhibition of human AKR1C3 expressed in Escherichia coli incubated for 30 mins in presence of NADPH regeneration system by UHPLC method based Lineweaver-Burk double-reciprocal plot analysis.
Data set [8] has the same target. The data set is described as follows: Inhibition of human AKR1C3 expressed in Escherichia coli incubated for 30 mins in presence of NADPH regeneration system by UHPLC analysis.
For data set [9] the target is unchanged. Put plainly: Inhibition of AKR1C3 (unknown origin) expressed in human HCT116 cells incubated for 3 to 6 hrs by UHPLC analysis. The data set is classed as cell-based, HCT-116.
Data set [10] deals with T6, Aldo-keto reductase family 1 member C3 (Homo sapiens) (UniProt P42330).
T6 sequence (whole entry): T5 sequence (P42330 whole entry)
Put plainly: Inhibition NH2-terminal His6-tagged recombinant human AKR1C3 expressed in Escherichia coli BL21(DE3) cells using assessed as phenanthrenequinone reduction.

The target in data set [11] is T7, Aldo-keto reductase family 1 member C2 (Homo sapiens, UniProt P52895).
T7 sequence (P52895 whole entry): T1 sequence (P52895 whole entry)
The data set is described as follows: Inhibition NH2-terminal His6-tagged recombinant human AKR1C2 expressed in Escherichia coli BL21(DE3) cells using assessed as phenanthrenequinone reduction.

The target in data set [12] is T8, Aldo-keto reductase family 1 member C1 (Homo sapiens, UniProt Q04828).
T8 sequence (Q04828 whole entry): T1 sequence (P52895 whole entry) with V38T, H47R, V54L, S87C, M151V, H170R, L172Q
Put plainly: Inhibition of NH2-terminal His6-tagged recombinant human AKR1C1 expressed in Escherichia coli BL21(DE3) cells using assessed as phenanthrenequinone reduction.

Data set [13] addresses T5, Aldo-keto reductase family 1 member C3. The data set is described as follows: Inhibition of human AKR1C3 expressed in Escherichia coli preincubated for 15 mins followed by Adion addition and measured after 30 mins by HPLC analysis.

For `COc1ccc2c(c1)c(CCNC(C)=O)cn2C(=O)c1ccc(Cl)cc1`, the inhibition at 60 µM against AKR1C2 and against AKR1C1 was below 10% throughout. Further, the pIC50 was below 4.22 in [1], below 4.22 in data set [2], 4.94 in [3] and 5.11 in [4].
Take `COc1ccc2cc3[n+](cc2c1OC)CCc1cc2c(cc1-3)OCO2` [BERBERINE]: in data set [5], the pIC50 was 5.39.
Consider `Nc1cc(C(F)(F)F)c(-c2cc(N3CCOCC3)nc(N3CCOCC3)n2)cn1` [BUPARLISIB], for which the pIC50 in data set [6] is 5.10; in data set [8] it was 5.02. The negative-log Ki (pKi) in data set [7] was 4.85.
In data set [9], `CCc1cnn2c(NCc3ccc[n+]([O-])c3)cc(N3CCCC[C@H]3CCO)nc12` [DINACICLIB] had a pIC50 of 6.64. Moreover, the pKi in data set [8] (read-out: Ki(app)) is 7.15.
Consider `CC/C=C\CC1C(=O)CCC1CC(=O)OC` (stereo unspecified) [METHYL JASMONATE], for which the Kis in data set [10] was found to be 153 µM/L; in data set [11], 49 uM/L; in [12], 162 uM/L.
Turning to `CO[C@@H]1C=C[C@@]23c4cc5c(cc4CO[C@]2(O)CN(C)[C@H]3C1)OCO5` [TAZETTINE], the pIC50 in data set [13] was 4.80.
